≈ marks a conversion by molar mass, not a printed value.
Assays:
Cryptococcus gastricus = system: Cryptococcus gastricus; parameters: method as in PMID 26428920; details: cited from earlier work
[1] = system: experimental autoimmune encephalomyelitis (EAE); parameters: method as in PMID 25938431; details: EAE mice, three days of treatment, intraperitoneal 3.5 mg/kg; reduced from 4; cited from earlier work
Trichophyton rubrum = system: Trichophyton rubrum; parameters: method as in PMID 26428920; details: cited from earlier work
in vitro = in vitro ADME; details: human
Method: The metabolic stability of volacein was assessed as described by Godoi et al. and Antunes et al.. Aliquots (4 µL) of 100 µM violacein working solution and 96 µL of the NADPH-regenerating system, containing 1.1 mM NADP^+, 10 mM glucose-6-phosphate, 1 U/mL glucose-6-phosphate dehydrogenase, 5 mM sodium citrate, and 66 mM magnesium chloride in 100 mM phosphate buffer, pH 7.4, were transferred to propylene tubes and pre-incubated for 5 min in an MTC 100 thermo shaker incubator (Miulab, Zhejiang, China) at 300 rpm and 37 °C. Subsequently, the metabolic reactions were initiated by adding 100 μL of microsomal proteins from HLMs, RLMs, and MLMs at a concentration of 2 mg/mL to the pre-incubated shaking tubes, resulting in final concentrations of 2 μM for violacein and 1 mg/mL for microsomal proteins. In this experiment, seven incubation times were planned for each species (0, 3, 5, 15, 30, 60, and 120 min), in triplicate. At each time interval, the reactions were stopped by adding 400 μL of ice-cold acetonitrile spiked with 10 µM omeprazole (IS) to each tube. Finally, the samples were vortexed for 5 min in a BenchMixer^TM XL (Benchmark, NJ, USA) and centrifuged at 12,000× g for 15 min at 4 °C (Hettich® Universal 320 R, Tuttlingen, Germany). The supernatants were transferred to a 96-well plate and 8 μL was injected into the LC-MS/MS system (see Section 2.3).
All incubations were performed simultaneously with positive and negative controls. The positive controls were prepared by incubating dapaconazole at the same conditions as violacein (final concentrations: 2 μM) and its metabolic stability was compared with previous studies. Similarly, the negative controls were prepared by incubating violacein in buffer solution, in the absence of microsome and cofactor solutions.
Violacein was analyzed using LC-MS/MS (LC-QQQ MS, LCMS8045, Shimadzu, Kyoto, Japan). Chromatographic separation was achieved on a Raptor^TM Biphenyl column (2.1 × 100 mm, 2.7 μm) at 40 °C. The mobile phases consisted of water (mobile phase A) and methanol (mobile phase B), both containing 2 mM ammonium formate and 0.1% (v/v) formic acid. A flow rate of 0.3 mL/min was used with an elution gradient starting at 20% mobile phase B and holding for 0.2 min, followed by a linear increase to 95% mobile phase B over 2 min that was then maintained for 1 min, with a return to the initial condition in 0.2 min. The total chromatographic run time was 5 min.
In vitro t1/2 was calculated using to the following equation [60, 61]:(1) t1/2=ln(2)/k where k is the slope of the log-linear regression graph of the percentage of drug remaining as a function of time.
CLint, in vitro was calculated using to the following equation [60, 61]:(2) CLint, in vitro=0.693/t1/2×Vincubation/mmicrosomes where Vincubation indicates the volume of the incubation in μL and mmicrosomes indicates the mass of microsomal proteins added to the incubation solution in mg.
After determining CLint, in vitro, it was possible to calculate CLint, in vivo using allometric scaling, as follows:(3) CLint, in vivo=CLint, in vitro×mmicrosomes/gliver×mliver/kgper body weight where mmicrosomes is 61, 45, and 40 mg and represents the mass of microsomal protein per gram of liver (gliver) for rats, mice, and humans, respectively. The mliver is 40, 87.5, and 25.7 g/kg and represents the mass of liver per kilogram of body weight (kgper body weight) for rats, mice, and humans, respectively.
Metabolic stability was evaluated by linear regression analysis of the residual violacein after incubating 4 µM violacein with 2 mg/mL of HLMs, MLMs, and RLMs in the presence of the enzymatic cofactors required for CYP function in microsomes. Calculation of the in vitro violacein metabolic stability was achieved by plotting the remaining percentage of violacein on the y-axis and the incubation time on the x-axis (Figure 1a). […]

In the case of `O=C1NC(c2c[nH]c3ccc(O)cc23)=C/C1=C1\C(=O)Nc2ccccc21` [violacein], the MIC (Cryptococcus gastricus) is listed as 32 µg/mL (≈ 93.2 µM), the Maximum clinical score [1] is listed as 2 and the MIC (Trichophyton rubrum) is listed as 2 µg/mL (≈ 5.83 µM). For the same compound, the “Ln Z” value (in vitro; 0 min, 2 µM, pH 7.4) was 4.605, the “Slope (k), metabolism rate constant” value (in vitro; 2 µM, pH 7.4) was “y = −0.0032x + 4.3894 r^2 = 0.9651 Slope (k) = 0.0032” and the “Ln Z” value (in vitro; 3 min, 2 µM, pH 7.4) was 4.462. For the same compound, the “Ln Z” value (in vitro; 5 min, 2 µM, pH 7.4) was 4.417, the “Ln Z” value (in vitro; 15 min, 2 µM, pH 7.4) was 4.316 and the “Ln Z” value (in vitro; 30 min, 2 µM, pH 7.4) was 4.277. For the same compound, the “Ln Z” value (in vitro; 60 min, 2 µM, pH 7.4) was 4.183, the “Ln Z” value (in vitro; 120 min, 2 µM, pH 7.4) was 4.017 and the “Z (%), remaining percentage of violacein” value (in vitro; microsomes, 0 h, 2 µM, pH 7.4) was 100%. For the same compound, the “CLint, in vivo” value (in vitro; microsomes, 2 µM, pH 7.4) was 6.58 mL/min/kg, the “Z (%), remaining percentage of violacein” value (in vitro; microsomes, 0.05 h, 2 µM, pH 7.4) was 87% and the “Z (%), remaining percentage of violacein” value (in vitro; microsomes, 5 min, 2 µM, pH 7.4) was 83%. The “Z (%), remaining percentage of violacein” value (in vitro; microsomes, 0.25 h, 2 µM, pH 7.4) was 75%, the “Z (%), remaining percentage of violacein” value (in vitro; microsomes, 0.5 h, 2 µM, pH 7.4) was 72% and the “Z (%), remaining percentage of violacein” value (in vitro; microsomes, 1 h, 2 µM, pH 7.4) was 66%. For the same compound, the half-life at 2 µM (in vitro; microsomes, pH 7.4) was 3.6 h, the microsomal CLint at 2 µM (in vitro; microsomes, pH 7.4) was 6.4 µL/min/mg and the CLint scaled at 2 µM (in vitro; microsomes, pH 7.4, CLint, in vivo) was 6.6 mL/min/kg.
